Format in all cases: in vivo, Albino male rats
For one assay, the system named is growth hormone. Put plainly: Test Procedure II: arginine-stimulated plasma growth hormone in nembutal-treated rats. To be noted: p = <0.01. The method, then:
(§1) Albino male rats are arranged in three groups (nine rats/group) and injected i.p. with nembutal at 50 mg/kg. Fifteen minutes after the nembutal injection they are injected s.c. according to group with (a) test compound, typically 500-2000 μg/kg; (b) SRIF 200 μg/kg; or (c) physiological saline. Ten minutes later 0.5 ml. of arginine (300 mg/ml, pH 7.2) is injected into the heart. The rats are decapitated five minutes after receiving the arginine, and the blood is collected into Trasylol-EDTA. Appropriate aliquots are then assayed for growth hormone, glucagon and insulin. […] Comparisons between control and experimental values are statistically evaluated by the analysis of variants method and statistical significance (p) at 0.05 or lower is used as the index of activity.

In another assay the test system is insulin. Put plainly: Test Procedure II: arginine-stimulated plasma insulin in nembutal-treated rats. The method, then:
as §1

The next assay concerns glucagon. Put plainly: Test Procedure II: arginine-stimulated plasma glucagon in nembutal-treated rats. The method, then:
as §1

Regarding `C[C@H](N)C(=O)NCC(=O)N[C@H]1CSSC[C@@H](C(=O)O)NC(=O)[C@H](CO)NC(=O)[C@H]([C@@H](C)O)NC(=O)[C@H](Cc2ccccc2)NC(=O)[C@H]([C@@H](C)O)NC(=O)[C@H](CCCCN)NC(=O)[C@H](Cc2c[nH]c3ccccc23)NC(=O)[C@H](Cc2ccccc2)NC(=O)[C@H](Cc2ccccc2)NC(=O)[C@H](CC(N)=O)NC(=O)[C@H](CCCCN)NC1=O` [SRIF, somatostatin], the GH in the assay with growth hormone (10 μg/kg s.c., control 543 ± 86) is 241 ± 15 ng/mL; with growth hormone (20 μg/kg s.c., control 619 ± 103), 232 ± 87 ng/mL; in the assay on growth hormone (0.2 mg/kg s.c., control 287 ± 53), 65 ± 16 ng/mL. Moreover, the Insulin in the assay on insulin (200 μg/kg s.c., control 167 ± 12, p = <0.01) is reported as 117 ± 12 μ units/ml; in the assay on insulin (0.2 mg/kg s.c., control 151 ± 15, p = <0.05) it was 111 ± 10 μ units/ml. Also, the Glucagon with glucagon (200 μg/kg s.c., control 62 ± 8, p = <0.01) was 13 ± 4 pg/mL; in the assay on glucagon (0.2 mg/kg s.c., control 20 ± 1, p = <0.05), 12 ± 3 pg/mL.

Values taken from patent US4133805A, “Cyclic undecapeptides related to somatostatin and intermediates therefor” (American Home Products Corporation, priority 1975, dated 1979).
